Drawing on US20240376099A1, “COMPOUNDS AND COMPOSITIONS AS INHIBITORS OF ENDOSOMAL TOLL-LIKE RECEPTORS” (Novartis AG, priority 2016, published 2024), this text covers IC50 for nine molecules.

The IC50 is the point on the concentration scale where inhibition reaches its midpoint.

One assay deals with T1, TLR8 (Homo sapiens, UniProt Q9NR97).
T1 sequence (Q9NR97 27-1041): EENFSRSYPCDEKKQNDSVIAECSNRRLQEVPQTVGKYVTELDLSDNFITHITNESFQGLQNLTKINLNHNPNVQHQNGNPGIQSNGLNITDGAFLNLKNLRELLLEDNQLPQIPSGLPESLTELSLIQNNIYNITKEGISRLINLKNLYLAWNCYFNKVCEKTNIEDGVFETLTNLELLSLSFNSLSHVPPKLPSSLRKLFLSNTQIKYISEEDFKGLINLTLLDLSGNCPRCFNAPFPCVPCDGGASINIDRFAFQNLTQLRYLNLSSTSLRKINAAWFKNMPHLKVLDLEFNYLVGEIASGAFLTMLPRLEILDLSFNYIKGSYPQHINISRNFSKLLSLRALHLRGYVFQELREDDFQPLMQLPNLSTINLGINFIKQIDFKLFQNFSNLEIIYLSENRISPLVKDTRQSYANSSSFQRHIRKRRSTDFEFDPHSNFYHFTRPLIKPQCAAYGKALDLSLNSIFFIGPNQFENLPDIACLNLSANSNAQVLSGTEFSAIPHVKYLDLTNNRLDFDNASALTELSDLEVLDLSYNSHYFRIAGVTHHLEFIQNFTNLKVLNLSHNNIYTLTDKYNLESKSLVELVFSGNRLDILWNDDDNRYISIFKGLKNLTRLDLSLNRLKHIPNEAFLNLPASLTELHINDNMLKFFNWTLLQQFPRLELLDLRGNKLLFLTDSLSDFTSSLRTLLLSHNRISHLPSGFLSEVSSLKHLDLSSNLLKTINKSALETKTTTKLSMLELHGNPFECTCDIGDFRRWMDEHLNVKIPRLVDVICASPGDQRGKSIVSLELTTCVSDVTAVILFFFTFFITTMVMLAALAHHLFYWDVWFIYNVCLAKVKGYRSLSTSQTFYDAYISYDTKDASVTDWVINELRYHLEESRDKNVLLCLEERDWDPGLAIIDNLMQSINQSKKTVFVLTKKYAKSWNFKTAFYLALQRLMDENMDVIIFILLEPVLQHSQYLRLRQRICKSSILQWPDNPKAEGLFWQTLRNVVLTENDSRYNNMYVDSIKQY
As to the kind of experiment: huPBMC TLR8 Antagonist IL-6 TR-FRET Assay. Format: cell-based. The following applies: human PBMCs stimulated with ssRNA40 1 μg/ml (DOTAP), 14-16 hrs; IL-6 TR-FRET read-out. Further details: Fresh blood was collected from normal human donors; endogenous in cells; host or cells: human PBMCs from fresh donor blood. As for the experimental part: (§1) Compounds were generally serially diluted (1/3) in DMSO and plated on sterile 384 well tissue culture plates and stored until ready for use. Each ten-point dilution was typically plated in triplicate in parallel rows.
(§2) Fresh blood was collected from normal human donors underwritten informed consent in heparinized syringes on the morning of the assay. The blood was diluted in RPMI-1640 medium and the white blood cells were separated from red blood cells by centrifugation (800 g 15′ 0 acceleration, 0 brake) on a Ficoll cushion. Peripheral blood mononuclear cells (PBMCs) were separated from platelets by a series of low-speed centrifugations (1000RPM 10′) in PBS+5% HI—FBS and 1 mM EDTA. Purified PBMCs were re-suspended in assay medium (RPMI-1640 w Glutamax (Invitrogen) supplemented with 5% HI—FBS, 10 mM HEPES, 50 uM β-mercaptoethanol, and 100 mG/L penicillin/streptomycin cocktail). Viable PBMCs were counted on a hemacytometer and kept on ice until ready for plating.
(§3) A 4× concentration (4 ug/ml or 40 ug/ml for TLR8 or TLR7 assays, respectively) of the TLR7/8 agonist ssRNA40 (IDT) was complexed with 10% DOTAP (Roche) in assay medium for 30 min prior to addition to the PBMC suspension (5 million cells/ml). After addition, the final concentration of ssRNA40 in the TLR7/8 stimulated PBMC suspension was 1 μg/ml for TLR8 assay, and 10 μg/mL for the TLR7 assay. The final DOTAP concentration was 2.5%. Diluted PBMCs (5 million cells/ml) were treated with 4×TLR9 agonist ODN2216 (Invivogen). Final concentration of ODN2216 in TLR9 stimulated PBMC suspension was 0.3 μM.
(§4) Agonist stimulated PBMCs were plated on the compound treated 384 well plates at 150,000 cells/well. Un-stimulated PBMCs were plated as controls on each plate. Plating volume was 40 μL per well. DMSO concentration in each well was 0.25%.
(§5) A separate plate, without compounds, with titrations of ssRNA40 and ODN2216 was included in every assay to measure agonist response of each donor's PBMC prep. Assay plates were placed in a tissue culture incubator (37° C., 5% CO2) for 14-16 hrs. After this incubation, the plates were centrifuged and stored at −20° C. until they were assayed.
(§6) IL-6 TR-FRET Assay for TLR8 activity: • 1) Cisbio Human IL-6 kit, 20,000 tests (62TNFPEC), and GNF High-Base TC 384 well plates (cat #789163G) were used; • 2) the Anti-TIL-6 Cryptate conjugate and the Anti-IL-6 XL665 conjugate were diluted 1:20 in Reconstitution Buffer; • 3) a 1:1 mixture of 3 μl/well Anti-IL-6 Cryptate conjugate and 3 μl/well Anti-IL-6 XL665 conjugate was prepared; • 4) 6 μl/well HTRF dilution mastermix was added to 6 μl of transferred supernatant samples in proxiplates; • 5) The plates were incubated for 3 hrs at rt in the dark; and • 6) the levels of IL-6 production was measured using an Envision plate reader (665 nm (emmission)/590 nm (excitation)) with HTRF settings and ratiometric read-out: (XL665 emission/Eu Cryptate emission)×10,000. IFNα2b AlphaLISA Assay for TLR7 or TLR9 activity After thawing the assay plates, 6 μL of supernatant samples were transferred to a low-volume AlphaPlate 384SW (Perkin-Elmer). The concentration of IFNα in supernatants was measured using the IFNα2b AlphaLISA Assay (Perkin-Elmer: AL297F). 3 μL of IFNα acceptor beads/biotinylated antibody solution was added first, using laboratory automation. After an hour incubation, […] of streptavidin […] bead solution was added. The plates containing this mixture were incubated in the dark for an hour and read on an appropriate plate reader at reading parameters set by the manufacturer. (Envision, EnSpire: Perkin-Elmer).
On the technique in general: TR-FRET usually uses a lanthanide donor and a delayed reading to cut background.

The target in the next assay is T2, TLR7 (Homo sapiens, UniProt Q9NYK1).
T2 construct: Fresh blood was collected from normal human donors; endogenous in cells; host or cells: human PBMCs from fresh donor blood
T2 sequence (Q9NYK1 27-1049): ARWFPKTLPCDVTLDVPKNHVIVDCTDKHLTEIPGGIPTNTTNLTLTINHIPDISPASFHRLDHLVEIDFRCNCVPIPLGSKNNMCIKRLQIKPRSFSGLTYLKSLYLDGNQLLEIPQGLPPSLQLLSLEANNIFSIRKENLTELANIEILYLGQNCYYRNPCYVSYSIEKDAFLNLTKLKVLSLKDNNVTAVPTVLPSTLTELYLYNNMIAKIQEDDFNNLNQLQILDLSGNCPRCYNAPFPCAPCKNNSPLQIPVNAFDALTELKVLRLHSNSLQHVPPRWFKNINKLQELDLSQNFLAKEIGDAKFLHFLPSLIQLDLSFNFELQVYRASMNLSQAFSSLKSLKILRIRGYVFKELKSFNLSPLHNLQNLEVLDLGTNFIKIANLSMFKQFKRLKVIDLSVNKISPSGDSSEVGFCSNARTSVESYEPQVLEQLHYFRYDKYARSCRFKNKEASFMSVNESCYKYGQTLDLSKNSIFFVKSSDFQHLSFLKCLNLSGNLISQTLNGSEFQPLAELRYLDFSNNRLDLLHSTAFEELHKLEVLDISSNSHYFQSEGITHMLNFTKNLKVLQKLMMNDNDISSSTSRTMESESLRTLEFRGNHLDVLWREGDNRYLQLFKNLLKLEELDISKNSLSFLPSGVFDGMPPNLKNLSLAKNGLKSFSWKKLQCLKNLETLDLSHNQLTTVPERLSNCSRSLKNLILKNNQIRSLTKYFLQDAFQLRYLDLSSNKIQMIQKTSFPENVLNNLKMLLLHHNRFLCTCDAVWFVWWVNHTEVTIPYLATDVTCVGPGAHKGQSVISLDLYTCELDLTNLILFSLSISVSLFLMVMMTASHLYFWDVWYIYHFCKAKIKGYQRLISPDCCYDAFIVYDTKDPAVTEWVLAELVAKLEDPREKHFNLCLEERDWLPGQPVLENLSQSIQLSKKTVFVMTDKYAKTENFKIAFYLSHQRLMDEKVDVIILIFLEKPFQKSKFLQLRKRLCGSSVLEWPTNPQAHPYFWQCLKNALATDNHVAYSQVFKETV
Put plainly: huPBMC TLR7 Antagonist IFNα Assay. Format: cell-based. The following applies: human PBMCs stimulated with ssRNA40 10 μg/mL (DOTAP), 14-16 hrs; IFNα2b AlphaLISA read-out. As for the experimental part:
as §1, §2, §3, §4, §5, §6

On to `Cc1cc(N2CCc3c(c(C)nn3CC34CCC(NC(=O)CN(C)S(C)(=O)=O)(CC3)CC4)C2)c2cnn(C)c2n1` [compound 138, N-(4-((5-(1,6-dimethyl-1H-pyrazolo[3,4-b]pyridin-4-yl)-3-methyl-4,5,6,7-tetrahydro-1H-pyrazolo[4,3-c]pyridin-1-yl)methyl)bicyclo[2.2.2]octan-1-yl)-2-(N-methylmethylsulfonamido)acetamide], for which the IC50 on TLR8 was found to be 2790 nM; at TLR7 it was 6 nM. Turning to `Cc1nc(N2CCc3c(c(C)nn3CC34CCC(NC(=O)C5CNC5)(CC3)CC4)C2)c2c(n1)c(C)nn2C` [compound 32, N-(4-((3-methyl-5-(1,3,5-trimethyl-1H-pyrazolo[4,3-d]pyrimidin-7-yl)-4,5,6,7-tetrahydro-1H-pyrazolo[4,3-c]pyridin-1-yl)methyl)bicyclo[2.2.2]octan-1-yl)azetidine-3-carboxamide], the values for the IC50 at TLR8 and at TLR7 were 125 nM and 124 nM, respectively. Regarding `Cc1cc(N2CCc3c(c(C)nn3CC34CCC(N)(CC3)CC4)C2)c2ccn(C)c2n1` [Compound No. 5, 4-((5-(1,6-dimethyl-1H-pyrrolo[2,3-b]pyridin-4-yl)-3-methyl-4,5,6,7-tetrahydro-1H-pyrazolo[4,3-c]pyridin-1-yl)methyl)bicyclo[2.2.2]octan-1-amine], the IC50 stood at 433 nM at TLR8 and 397 nM on TLR7. For `CC(=O)N(C)CC(=O)NC12CCC(Cn3nc(C)c4c3CCN(c3cc(C)nc5c3cnn5C)C4)(CC1)CC2` [compound 139, N-(4-((5-(1,6-dimethyl-1H-pyrazolo[3,4-b]pyridin-4-yl)-3-methyl-4,5,6,7-tetrahydro-1H-pyrazolo[4,3-c]pyridin-1-yl)methyl)bicyclo[2.2.2]octan-1-yl)-2-(N-methylacetamido)acetamide] the same measures were 3540 nM and 67 nM.

As for `Cc1cc(N2CCc3c(c(C)nn3CC34CCC(NS(C)(=O)=O)(CC3)CC4)C2)c2cnn(C)c2n1` [Compound No. 48, N-(4-((5-(1,6-dimethyl-1H-pyrazolo[3,4-b]pyridin-4-yl)-3-methyl-4,5,6,7-tetrahydro-1H-pyrazolo[4,3-c]pyridin-1-yl)methyl)bicyclo[2.2.2]octan-1-yl)methanesulfonamide], the IC50 on TLR7 came to 13 nM.

As to `Cc1cc(N2CCc3c(c(C)nn3CC34CCC(NCC(F)F)(CC3)CC4)C2)c2cnn(C)c2n1` [Compound No. 61, N-(2,2-difluoroethyl)-4-((5-(1,6-dimethyl-1H-pyrazolo[3,4-b]pyridin-4-yl)-3-methyl-4,5,6,7-tetrahydro-1H-pyrazolo[4,3-c]pyridin-1-yl)methyl)bicyclo[2.2.2]octan-1-amine], the IC50 at TLR8 was 129 nM; at TLR7, 12 nM. Regarding `Cc1cc(N2Cc3cnn(CC45CCC(N)(CC4)CC5)c3C(C)(C)C2)c2cnn(C)c2n1` [compound 60, 4-((5-(1,6-dimethyl-1H-pyrazolo[3,4-b]pyridin-4-yl)-7,7-dimethyl-4,5,6,7-tetrahydro-1H-pyrazolo[4,3-c]pyridin-1-yl)methyl)bicyclo[2.2.2]octan-1-amine], the IC50 at TLR8 stood at 277 nM; at TLR7, 1030 nM. `Cc1nn(CC23CCC(N)(CC2)CC3)c2c1CN(c1ccnc(-c3ccccc3)c1)CC2` [compound 63, 4-((3-methyl-5-(2-phenylpyridin-4-yl)-4,5,6,7-tetrahydro-1H-pyrazolo[4,3-c]pyridin-1-yl)methyl)bicyclo[2.2.2]octan-1-amine]: the results for the IC50 on TLR8 and on TLR7 were 568 nM and 34 nM, respectively.

`CCn1ncc2c(N3CCc4c(c(C)nn4CC45CCC(NC(=O)OC(C)(C)C)(CC4)CC5)C3)cc(C)nc21` [compound 145, tert-butyl (4-((5-(1-ethyl-6-methyl-1H-pyrazolo[3,4-b]pyridin-4-yl)-3-methyl-4,5,6,7-tetrahydro-1H-pyrazolo[4,3-c]pyridin-1-yl)methyl)bicyclo[2.2.2]octan-1-yl)carbamate]: the IC50 is greater than 10000 nM at TLR8 and 61 nM on TLR7.
